From US20230183237A1, “COMPETITIVE AND NONCOMPETITIVE INHIBITORS OF THE MUSCARINIC ACETYLCHOLINE RECEPTOR M5” (Vanderbilt University, priority 2020, published 2023) come the findings set out here.

For the assay, the target named is T1, hM5 (Homo sapiens, UniProt P08912).
T1 construct: expressed in transfected cells
T1 sequence (P08912 1-532): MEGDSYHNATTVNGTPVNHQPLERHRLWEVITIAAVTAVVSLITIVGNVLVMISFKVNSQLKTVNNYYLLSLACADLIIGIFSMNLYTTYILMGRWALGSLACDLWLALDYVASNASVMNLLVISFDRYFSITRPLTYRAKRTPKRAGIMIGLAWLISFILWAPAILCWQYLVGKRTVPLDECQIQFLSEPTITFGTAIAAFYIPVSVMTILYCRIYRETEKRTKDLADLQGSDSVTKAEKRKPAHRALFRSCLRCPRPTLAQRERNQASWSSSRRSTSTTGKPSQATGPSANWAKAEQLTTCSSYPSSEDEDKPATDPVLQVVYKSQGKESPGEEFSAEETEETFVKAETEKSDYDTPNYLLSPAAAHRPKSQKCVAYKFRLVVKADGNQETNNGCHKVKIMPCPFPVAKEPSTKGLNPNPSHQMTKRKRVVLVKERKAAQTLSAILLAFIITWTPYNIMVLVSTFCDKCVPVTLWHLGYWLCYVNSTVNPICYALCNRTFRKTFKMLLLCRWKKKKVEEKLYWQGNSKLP
Nature of the assay: Calcium mobilization concentration-response (IC50 vs EC80 acetylcholine), CHO hM5. The settings on record: CELL LINE hM5; calcium mobilization, EC80 acetylcholine addition; read-out: IC50. It is filed as cell-based. The method, boiled down: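 IC50 values derive from percent maximal acetylcholine response after an EC80 ACh addition, measured as kinetic calcium fluorescence (static ratio, max−min). Test compounds were added 140 s before agonist. Cells: stable hM5-CHO in HEPES-buffered HBSS with 2.5 mM probenecid, pH 7.4; ≥3 independent triplicate determinations.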
For orientation: Calcium assays in cells follow changes in intracellular calcium, usually with a dye or a luminescent sensor.

Broadly, the IC50 is the concentration at which inhibition is half-maximal. On to `O=S(=O)(c1c(Cl)nc2sccn12)N1CCC(c2cn3ncnc3cc2C(F)(F)F)CC1` [Compound 340, 6-chloro-5-((4-(7-(trifluoromethyl)-[1,2,4]triazoto[1,5-a]pyridin-6-yl)piperidin-1-yl)sulfonyl)imidazo[2,1-b]thiazole], for which the half-inhibitory concentration (IC50) was determined as 173 nM. Regarding `Cc1c(S(=O)(=O)N2CCC(c3cn4ncnc4cc3C(F)(F)F)CC2)c(Cl)nn1C` [Compound 341, 6-(1-((3-chloro-1,5-dimethyl-1H-pyrazol-4-yl)sulfonyl)piperidin-4-yl)-7-(trifluoromethyl)-[1,2,4]triazolo[1,5-a]pyridine], the concentration for half-maximal inhibition (IC50) amounted to 113 nM. Take `O=S(=O)(c1cnc2ccccn12)N1CCC(c2cn3ncnc3cc2Cl)CC1` [Compound 342, 7-chloro-6-(1-(imidazo[1,2-a]pyridin-3-ylsulfonyl)piperidin-4-yl)-[1,2,4]triazolo[1,5-a]pyridine]: the IC50 was 15 nM.

Regarding `O=S(=O)(c1cnc2n1CCCC2)N1CCC(c2cn3ncnc3cc2Cl)CC1` [Compound 343], the half-inhibitory concentration (IC50) is 12 nM.

Consider `O=S(=O)(c1c(Cl)nc2sccn12)N1CCC(c2cn3ncnc3cc2Cl)CC1` [Compound 344, 6-chloro-5-((4-(7-chloro-[1,2,4]triazolo[1,5-a]pyridin-6-yl)piperidin-1-yl)sulfonyl)imidazo[2,1-b]thiazole], for which the IC50 was 18 nM. Turning to `Cc1c(S(=O)(=O)N2CCC(c3cn4ncnc4cc3C3CC3)CC2)cnn1C` [Compound 345, 7-cyclopropyl-6-(1-((1,5-dimethyl-1H-pyrazol-4-yl)sulfonyl)piperidin-4-yl)-[1,2,4]triazolo[1,5-a]pyridine], the half-inhibitory concentration (IC50) was 134 nM. Take `Cc1c(C2CCN(S(=O)(=O)c3cnn(C)c3C(F)(F)F)CC2)cn2ncnc2c1F` [Compound 347, 8-fluoro-7-methyl-6-(1-((1-methyl-5-(trifluoromethyl)-1H-pyrazol-4-yl)sulfonyl)piperidin-4-yl)-[1,2,4]triazolo[1,5-a]pyridine]: the 50% inhibitory concentration (IC50) is 360 nM. The same measure for `Cc1c(C2CCN(S(=O)(=O)c3cnc4ccccn34)CC2)cn2ncnc2c1F` [Compound 348, 8-fluoro-6-(1-(imidazo[1,2-a]pyridin-3-ylsulfonyl)piperidin-4-yl)-7-methyl-[1,2,4]triazolo[1,5-a]pyridine]: 50 nM; for `Cc1c(C2CCN(S(=O)(=O)c3cnc4n3CCCC4)CC2)cn2ncnc2c1F` [Compound 349, 8-fluoro-7-methyl-6-(1-((5,6,7,8-tetrahydroimidazo[1,2-a]pyridin-3-yl)sulfonyl)piperidin-4-yl)-[1,2,4]triazolo[1,5-a]pyridine]: 17 nM; for `Cc1c(S(=O)(=O)N2CC=C(c3cc4c(cc3Cl)OCO4)CC2)cnn1C` [Compound 350, 4-(6-chlorobenzo[d][1,3]dioxol-5-yl)-1-((1,5-dimethyl-1H-pyrazol-4-yl)sulfonyl)-1,2,3,6-tetrahydropyridine]: 11 nM.

With `Cn1ncc(S(=O)(=O)N2CC=C(c3cc4c(cc3Cl)OCO4)CC2)c1Cl` [Compound 351, 1-((5-chloro-1-methyl-1H-pyrazol-4-yl)sulfonyl)-4-(6-chlorobenzo[d][1,3]dioxol-5-yl)-1,2,3,6-tetrahydropyridine], the IC50 was found to be 142 nM. As to `O=S(=O)(c1ccc2c(c1)CCO2)N1CC=C(c2cc3c(cc2Cl)OCO3)CC1` [Compound 352, 4-(6-chlorobenzo[d][1,3]dioxol-5-yl)-1-((2,3-dihydrobenzofuran-5-yl)sulfonyl)-1,2,3,6-tetrahydropyridine], the 50% inhibitory concentration (IC50) was above 10000 nM. For the molecule `CN1CCOc2ccc(S(=O)(=O)N3CC=C(c4cc5c(cc4Cl)OCO5)CC3)cc21` [Compound 353, 6-((4-(6-chlorobenzo[d][1,3]dioxol-5-yl)-3,6-dihydropyridin-1(2H)-yl)sulfonyl)-4-methyl-3,4-dihydro-2H-benzo[b][1,4]oxazine], the IC50 was above 10000 nM. As for `Cc1cc2nccnc2cc1C1=CCN(S(=O)(=O)c2cnn(C)c2C)CC1` [Compound 354, 6-(1((1,5-dimethyl-1H-pyrazol-4-yl)sulfonyl)-1,2,3,6-tetrahydropyridin-4-yl)-7-methylquinoxaline], the IC50 stood at 64 nM. As to `Cc1cc2nccnc2cc1C1=CCN(S(=O)(=O)c2cnn(C)c2Cl)CC1` [Compound 355, 6-(1-((5-chloro-1-methyl-1H-pyrazol-4-yl)sulfonyl)-1,2,3,6-tetrahydropyridin-4-yl)-7-methylquinoxaline], the IC50 worked out at 157 nM.

In the case of `Cc1c(S(=O)(=O)N2CCC(c3ccc4c(c3)OCO4)CC2)cnn1C` [Compound 356, 4-(benzo[d][1,3]dioxol-5-yl)-1-((1,5-dimethyl-1H-pyrazol-4-yl)sulfonyl)piperidine], the IC50 amounted to 306 nM. `Cn1ncc(S(=O)(=O)N2CCC(c3ccc4c(c3)OCO4)CC2)c1Cl` [Compound 357, 4-(benzo[d][1,3]dioxol-5-yl)-1-((5-chloro-1-methyl-1H-pyrazol-4-yl)sulfonyl)piperidine]: the IC50 came out at 384 nM. For `Cc1ncc(S(=O)(=O)N2CCC(c3ccc4c(c3)OCO4)CC2)n1C` [Compound 358, 4-(benzo[d][1,3]dioxol-5-yl)-1-((1,2-dimethyl-1H-imidazol-5-yl)sulfonyl)piperidine], the IC50 was determined as 1390 nM. On to `O=S(=O)(c1ccc2c(c1)CCO2)N1CCC(c2ccc3c(c2)OCO3)CC1` [Compound 359, 4-(benzo[d][1,3]dioxol-5-yl)-1-((2,3-dihydrobenzofuran-5-yl)sulfonyl)piperidine], for which the IC50 is above 10000 nM. The same measure for `Cc1nc(C)c(S(=O)(=O)N2CCC(c3cn4ncnc4cc3C)CC2C)s1` (stereo not drawn) [Compound 360, 2,4-dimethyl-5-((2-methyl-4-(7-methyl-[1,2,4]triazolo[1,5-a]pyridin-6-yl)piperidin-1-yl)sulfonyl)thiazole]: above 10000 nM. Regarding `Cc1cc2ncnn2cc1C1CCN(S(=O)(=O)c2cnn(C)c2Cl)C(C)C1` (stereo not drawn) [Compound 361, 6-(1-((5-chloro-1-methyl-1H-pyrazol-4-yl)sulfonyl)-2-methylpiperidin-4-yl)-7-methyl-[1,2,4]triazolo[1,5-a]pyridine], the concentration for half-maximal inhibition (IC50) was 1470 nM. As to `Cc1cc2ncnn2cc1C1CCN(S(=O)(=O)c2c(C)nn(C)c2C(F)(F)F)C(C)C1` (stereo not drawn) [Compound 362, 6-(1-((1,3-dimethyl-5-(trifluoromethyl)-1H-pyrazol-4-yl)sulfonyl)-2-methylpiperidin-4-yl)-7-methyl-[1,2,4]triazolo[1,5-a]pyridine], the half-inhibitory concentration (IC50) was above 10000 nM. Regarding `Cc1cc2ncnn2cc1C1CCN(S(=O)(=O)c2cnn3c2CCC3)C(C)C1` (stereo not drawn) [Compound 363, 6-(1-((5,6-dihydro-4H-pyrrolo[1,2-b]pyrazol-3-yl)sulfonyl)-2-methylpiperidin-4-yl)-7-methyl-[1,2,4]triazolo[1,5-a]pyridine], the IC50 worked out at 618 nM.

As for `Cn1ncc(S(=O)(=O)N2CCC(c3ccncc3)CC2)c1Cl` [Compound 364, 4-(1-((5-chloro-1-methyl-1H-pyrazol-4-yl)sulfonyl)piperidin-4-yl)pyridine], the concentration for half-maximal inhibition (IC50) was above 10000 nM. Turning to `Cc1c(S(=O)(=O)N2CCC(c3ccncc3)CC2)cnn1C` [Compound 365, 4-(1-((1,5-dimethyl-1H-pyrazol-4-yl)sulfonyl)piperidin-4-yl)pyridine], the IC50 is above 10000 nM. Regarding `O=S(=O)(c1cnn2c1CCC2)N1CCC(c2ccncc2)CC1` [Compound 366, 3-((4-(pyridin-4-yl)piperidin-1-yl)sulfonyl)-5,6-dihydro-4H-pyrrolo[1,2-b]pyrazole], the half-maximal inhibitory concentration (IC50) is above 10000 nM. Turning to `O=S(=O)(c1cnn2c1OCCC2)N1CCC(c2ccncc2)CC1` [Compound 367, 3-((4-(pyridin-4-yl)piperidin-1-yl)sulfonyl)-6,7-dihydro-5H-pyrazolo[5,1-b][1,3]oxazine], the half-inhibitory concentration (IC50) is above 10000 nM. To `O=S(=O)(c1cnn2c1CCCC2)N1CCC(c2ccncc2)CC1` [Compound 368, 3-((4-(pyridin-4-yl)piperidin-1-yl)sulfonyl)-4,5,6,7-tetrahydropyrazolo[1,5-a]pyridine] belongs above 10000 nM; to `Cc1cc2c(cc1C1CCN(S(=O)(=O)c3cnn(C)c3C)CC1)OCO2` [Compound 371, 1-((1,5-dimethyl-1H-pyrazol-4-yl)sulfonyl)-4-(6-methylbenzo[d][1,3]dioxol-5-yl)piperidine], 17 nM. On to `Cc1cc2c(cc1C1CCN(S(=O)(=O)c3cnn(C)c3Cl)CC1)OCO2` [Compound 372, 1-((5-chloro-1-methyl-1H-pyrazol-4-yl)sulfonyl)-4-(6-methylbenzo[d][1,3]dioxol-5-yl)piperidine], for which the concentration for half-maximal inhibition (IC50) stood at 14 nM.

With `Cc1cc2c(cc1C1CCN(S(=O)(=O)c3cnc(C)n3C)CC1)OCO2` [Compound 373, 1-((1,2-dimethyl-1H-imidazol-5-yl)sulfonyl)-4-(6-methylbenzo[d][1,3]dioxol-5-yl)piperidine], the 50% inhibitory concentration (IC50) was 13 nM. To `Cc1cc2c(cc1C1CCN(S(=O)(=O)c3cnn4c3CCC4)CC1)OCO2` [Compound 374, 3-((4-(6-methylbenzo[d][1,3]dioxol-5-yl)piperidin-1-yl)sulfonyl)-5,6-dihydro-4H-pyrrolo[1,2-b]pyrazole] belongs 7 nM; to `Cc1cc2c(cc1C1CCN(S(=O)(=O)c3ccc4c(c3)CCO4)CC1)OCO2` [Compound 375, 1-((2,3-dihydrobenzofuran-5-yl)sulfonyl)-4-(6-methylbenzo[d][1,3]dioxol-5-yl)piperidine], 2060 nM.
